Test results from ChEMBL document CHEMBL1147151, “In vitro optimization of non-small cell lung cancer activity with troxacitabine, L-1,3-dioxolane-cytidine, prodrugs” (J Med Chem, 2007).

Columns and labels:
A549 = experiment: Cytotoxicity against A549 cells after 72 hrs by SRB assay; type: functional, cell-based; conditions: Homo sapiens, A549, 72 h
SW1573 = experiment: Cytotoxicity against SW1573 cells after 72 hrs by SRB assay; type: functional, cell-based; conditions: Homo sapiens, SW1573, 72 h

In the case of `Nc1ccn([C@@H]2CO[C@H](CO)O2)c(=O)n1` [TROXACITABINE], the IC50 (A549) is reported as 0.68 µM and the IC50 (SW1573) is reported as 2.3 µM.

`COc1ccc(C(=O)Nc2ccn([C@@H]3CO[C@H](CO)O3)c(=O)n2)cc1` gave an IC50 (A549) of 3.5 µM and an IC50 (SW1573) of 10 µM.

With `O=C(Nc1ccn([C@@H]2CO[C@H](CO)O2)c(=O)n1)C1CC1` the IC50 (A549) was 18.7 µM and the IC50 (SW1573) was 22 µM.

`CC(=O)Nc1ccn([C@@H]2CO[C@H](CO)O2)c(=O)n1` showed an IC50 (A549) of 6.87 µM and an IC50 (SW1573) of 10.7 µM.

`CCCCCCCCCCCCCCCC(=O)Nc1ccn([C@@H]2CO[C@H](CO)O2)c(=O)n1` showed an IC50 (A549) of 0.004 µM and an IC50 (SW1573) of 0.02 µM.

`Nc1ccn([C@@H]2O[C@H](CO)[C@@H](O)C2(F)F)c(=O)n1` [GEMCITABINE] gave an IC50 (A549) of 13.1 µM and an IC50 (SW1573) of 8.3 µM.

Work on `O=C(Nc1ccn([C@@H]2CO[C@H](CO)O2)c(=O)n1)C1CCCCC1` yielded an IC50 (A549) of 7.37 µM and an IC50 (SW1573) of 14 µM.

Work on `CCCCCCCCCCCC(=O)Nc1ccn([C@@H]2CO[C@H](CO)O2)c(=O)n1` yielded an IC50 (A549) of 0.015 µM and an IC50 (SW1573) of 0.03 µM.

Compound `CCCCC(=O)Nc1ccn([C@@H]2CO[C@H](CO)O2)c(=O)n1` has an IC50 (A549) of 5.23 µM and an IC50 (SW1573) of 9.13 µM.

`CCCCCCCCC(=O)Nc1ccn([C@@H]2CO[C@H](CO)O2)c(=O)n1` gave an IC50 (A549) of 0.046 µM and an IC50 (SW1573) of 0.276 µM.

Compound `O=C(Nc1ccn([C@@H]2CO[C@H](CO)O2)c(=O)n1)c1ccc(Cl)cc1` has an IC50 (A549) of 0.41 µM and an IC50 (SW1573) of 2.77 µM.

Compound `O=C(Nc1ccn([C@@H]2CO[C@H](CO)O2)c(=O)n1)c1ccc(F)cc1` has an IC50 (A549) of 8.67 µM and an IC50 (SW1573) of 15.3 µM.

With `CCCCCCCCCCCCCCCCCCCCCC(=O)Nc1ccn([C@@H]2CO[C@H](CO)O2)c(=O)n1` the IC50 (A549) was 0.5 µM and the IC50 (SW1573) was 0.9 µM.

`CCCC(=O)Nc1ccn([C@@H]2CO[C@H](CO)O2)c(=O)n1` gave an IC50 (A549) of 6.6 µM and an IC50 (SW1573) of 8.07 µM.

For `O=C(Nc1ccn([C@@H]2CO[C@H](CO)O2)c(=O)n1)c1ccc(Br)cc1`, the IC50 (A549) was 4.53 µM and the IC50 (SW1573) was 8.87 µM.

Compound `O=C(Nc1ccn([C@@H]2CO[C@H](CO)O2)c(=O)n1)c1ccccc1` has an IC50 (A549) of 8.53 µM and an IC50 (SW1573) of 13.7 µM.

In the case of `O=C(Nc1ccn([C@@H]2CO[C@H](CO)O2)c(=O)n1)c1ccc(Cl)cc1Cl`, the IC50 (A549) is reported as 9.83 µM and the IC50 (SW1573) is reported as 14.3 µM.

`CCCCCCCCCCCCCCCCCC(=O)Nc1ccn([C@@H]2CO[C@H](CO)O2)c(=O)n1` gave an IC50 (A549) of 0.025 µM and an IC50 (SW1573) of 0.125 µM.

`CCCCCCCCCC(=O)Nc1ccn([C@@H]2CO[C@H](CO)O2)c(=O)n1` showed an IC50 (A549) of 0.024 µM and an IC50 (SW1573) of 0.04 µM.

Compound `O=C(Nc1ccn([C@@H]2CO[C@H](CO)O2)c(=O)n1)C1CCCC1` has an IC50 (A549) of 2.97 µM and an IC50 (SW1573) of 8.8 µM.

`CCCCCCC(=O)Nc1ccn([C@@H]2CO[C@H](CO)O2)c(=O)n1` was tested, and the IC50 (A549) was 1.04 µM and the IC50 (SW1573) was 2.4 µM.

Compound `CCCCCCCCCCCCCCCCCCCC(=O)Nc1ccn([C@@H]2CO[C@H](CO)O2)c(=O)n1` has an IC50 (A549) of 0.03 µM and an IC50 (SW1573) of 0.15 µM.
